Six compounds from patent publication US20140323349A1, “COMPOSITIONS AND METHODS FOR MONITORING AND DETECTING CANCEROUS CONDITIONS” (PHIGENIX, INC., priority 2011, published 2014) can be followed below.

Entries after “also recorded” stand apart in the source; their conditions may differ.

Assay type in all cases: cell-based, human
For one assay, the system named is PAX2 protein. As to the kind of experiment: Western blot analysis of PAX2 protein. Particulars: DU145; 5 uM Los, 25 uM U0126, 20 uM PD98059, 250 μM AICAR. The protocol: Briefly, cells were harvested by trypsinization and washed twice with PBS. Lysis buffer was prepared according to the manufacturer's instructions (Sigma), and was then added to the cells. Following a 15 minute incubation period at 4° C. on an orbital shaker, cell lysate were then collected and centrifuged for 10 minutes at 12000×g to pellet cellular debris. The protein-containing supernatant were then collected and quantitated. Next, 25 μg protein extract was loaded onto an 8-16% gradient SDS-PAGE (Novex). Following electrophoresis, proteins were transferred to PVDF membranes, and then blocked with 5% nonfat dry milk in TTBS (0.05% Tween 20 and 100 mM Tris-C1) for 1 hour. Blots were then probed with rabbit anti-PAX2 primary antibody (Zymed, San Francisco, Calif.) at a 1:2000 dilution. After washing, the membranes were incubated with anti-rabbit antibody conjugated to horseradish peroxidase (HRP) (dilution 1:5000; Sigma), and signal detection was visualized using chemilluminescence reagents (Pierce) on an Alpha Innotech Fluorchem 8900. As a control, blots were stripped and reprobed with mouse anti-β-actin primary antibody (1:5000; Sigma-Aldrich) and HRP-conjugated anti-mouse secondary antibody (1:5000; Sigma-Aldrich) and signal detection was again visualized.
Western blot analysis was performed as described in Example 2. Blots were then probed with primary antibody (anti-PAX2, -phospho-PAX2, -JNK, -phospho-JNK, -ERK1/2, or -phospho-ERK1/2) (Zymed, San Francisco, Calif.) at 1:1000-2000 dilutions. After washing, the membranes were incubated with anti-rabbit antibody conjugated to horseradish peroxidase (HRP) (dilution 1:5000; Sigma), and signal detection was visualized using chemilluminescence reagents (Pierce) on an Alpha Innotech Fluorchem 8900. As a control, blots were stripped and re-probed with mouse anti-β-actin primary antibody (1:5000; Sigma-Aldrich) and HRP-conjugated anti-mouse secondary antibody (1:5000; Sigma-Aldrich), and signal detection was again visualized.

For a further assay, the system named is phospho-STAT3. The experiment in a line: Western blot of phospho-STAT3. Particulars: DU145. The protocol: (§1) Western blot analysis was performed as described in Example 2. […] After washing, the membranes were incubated with anti-rabbit antibody conjugated to horseradish peroxidase (HRP) (dilution 1:5000; Sigma), and signal detection was visualized using chemilluminescence reagents (Pierce) on an Alpha Innotech Fluorchem 8900. As a control, blots were stripped and re-probed with mouse anti-β-actin primary antibody (1:5000; Sigma-Aldrich) and HRP-conjugated anti-mouse secondary antibody (1:5000; Sigma-Aldrich), and signal detection was again visualized.

Another assay deals with phospho-PAX2. The experiment in a line: Western blot of phospho-PAX2. The following applies: DU145. The method, then: as §1
In general terms: A western blot detects proteins with antibodies after separation by electrophoresis.

For the next assay, the system named is phospho-JNK. The experiment in a line: Western blot of phospho-JNK. The following applies: DU145. The method, then:
as §1

The subject of the next assay is DU145 cells. As to the kind of experiment: [3H]thymidine incorporation proliferation assay. The method, then: Proliferation of cells was determined by [^3H] thymidine ribotide ([3H]TdR) incorporation into DNA. 0.5×10^6 cells/well of suspension DU145 cells were plated in their appropriate media. Cells were incubated for 72 h with or without the presence of AngII at the indicated concentrations. Cells were exposed to 37 kBq/ml [methyl-3H]thymidine in the same medium for 6 h. The adherent cells were fixed by 5% trichloroacetic acid and lysed in SDS/NaOH lysis buffer overnight. Radioactivity was measured by Beckman LS3801 liquid scintillation counter (Canada). Suspension cell cultures were harvested by cell harvester (Packard Instrument Co., Meriden, Conn.), and radioactivity was measured by 1450 microβ liquid scintillation counter (PerkinElmer Life Sciences).
Background: Uptake of a labelled nucleoside into DNA is a usual measure of proliferation.

A further assay concerns PAX2. As to the kind of experiment: PAX2 expression after treatment with AngII or receptor blockers. The following applies: for reduction of PAX2 expression: versus untreated control. The protocol:
Western blot analysis was performed as described in Example 2. […] After washing, the membranes were incubated with anti-rabbit antibody conjugated to horseradish peroxidase (HRP) (dilution 1:5000; Sigma), and signal detection was visualized using chemilluminescence reagents (Pierce) on an Alpha Innotech Fluorchem 8900. As a control, blots were stripped and re-probed with mouse anti-β-actin primary antibody (1:5000; Sigma-Aldrich) and HRP-conjugated anti-mouse secondary antibody (1:5000; Sigma-Aldrich), and signal detection was again visualized. Quantitative real-time RT-PCR was performed as described in Example 1 to verify changes in gene expression following PAX2 knockdown in PC3 and DU145 prostate cancer cell lines and the hPrEC normal prostate epithelial cells. Forty cycles of PCR were performed under standard conditions using an annealing temperature of 60° C. Quantification was determined by the cycle number where exponential amplification began (threshold value) and averaged from the values obtained from the triplicate repeats. There was an inverse relationship between message level and threshold value. In addition, GAPDH was used as a housekeeping gene to normalize the initial content of total cDNA. Relative expression was calculated as the ratio between each genes and GAPDH. All reactions were carried out in triplicate.

The subject of the next assay is phospho-ERK 1/2. The experiment in a line: Western blot of phospho-ERK 1/2. Particulars: DU145. The protocol: as §1
Another assay has as its system ERK. As to the kind of experiment: Western blot of ERK. Particulars: DU145. The protocol: as §1
The next assay concerns DEFB1. As to the kind of experiment: QRT-PCR of DEFB1 (hBD-1) expression. The following applies: 10 μM. The protocol: Briefly, total RNA was isolated using the SV Total RNA Isolation System (Promega, Madison, Wis.) from approximately 1×10^6 cells harvested by trypsinizing. Cells were lysed and total RNA was isolated by centrifugation through spin columns. For cells collected by LCM, total RNA was isolated using the PicoPure RNA Isolation Kit (Arcturus Biosciences, Mt. View, Calif.) following the manufacturer's protocol. Total RNA (0.5 μg per reaction) from both sources was reverse transcribed into cDNA utilizing random primers (Promega). AMV Reverse Transcriptase II enzyme (500 units per reaction; Promega) was used for first strand synthesis and Tfl DNA Polymerase for second strand synthesis (500 units per reaction; Promega) as per the manufacturer's protocol. In each case, 50 pg of cDNA was used per ensuing PCR reaction. Two-step QRT-PCR was performed on cDNA generated using the MultiScribe Reverse Transcripatase from the TaqMan Reverse Transcription System and the SYBR® Green PCR Master Mix (Applied Biosystems).
Forty cycles of PCR were performed under standard conditions using an annealing temperature of 56° C. In addition, β-actin (Table 2) was amplified as a housekeeping gene to normalize the initial content of total cDNA. […]
Quantitative real-time RT-PCR was performed as described in Example 1 to verify changes in gene expression following PAX2 knockdown in PC3 and DU145 prostate cancer cell lines and the hPrEC normal prostate epithelial cells. […] Quantification was determined by the cycle number where exponential amplification began (threshold value) and averaged from the values obtained from the triplicate repeats. […] Relative expression was calculated as the ratio between each genes and GAPDH. […]
QRT-PCR was performed as previously described (Gibson et al., 2007). […] Gene expression in benign prostate tissue samples was calculated as the expression ratio compared to β-actin. Levels of hBD-1 expression in malignant prostate tissue, hPREC prostate primary culture, and prostate cancer cell lines before and after induction were calculated relative to the average level of hBD-1 expression in hPrEC cells. […]

`NC(=O)c1ncn([C@@H]2O[C@H](CO)[C@@H](O)[C@H]2O)c1N` [AICAR, 5-Aminoimidazole-4-carboxamide-1-β-4-ribofuranoside]: the “PAX2 expression / protein levels” value in the assay on PAX2 protein is reported as “suppression of PAX2 pression expression; also recorded: suppress PAX2 protein levels”. For the same compound, the phospho-STAT3 protein levels result in the assay with phospho-STAT3 was “suppressed; also recorded: suppress phospho-STAT3 protein levels”. Besides, the phospho-PAX2 protein levels entry in the assay with phospho-PAX2 is listed as “suppression; also recorded: suppress phospho-PAX2 protein expression levels”.

Consider `N#CC(=C(/N)Sc1ccccc1N)/C(C#N)=C(\N)Sc1ccccc1N` [Drug U0126, U0126], for which the “PAX2 expression / protein levels” value with PAX2 protein is given as “significant reduction of PAX2 expression; also recorded: suppress PAX2 protein levels”. In the assay on phospho-STAT3, the phospho-STAT3 protein levels result is recorded as “reduced phospho-STAT3 protein levels; also recorded: suppress phospho-STAT3 protein levels”. Besides, the phospho-PAX2 protein levels result with phospho-PAX2 was “significant decrease or suppression of phospho-PAX2 protein levels; also recorded: suppress phospho-PAX2 protein expression levels”. Besides, in the assay with phospho-JNK, the phospho-JNK protein levels entry was “did not decrease phospho-JNK protein levels; also recorded: failed to decrease phospho-JNK protein levels”.

Turning to `CCCCc1nc(Cl)c(CO)n1Cc1ccc(-c2ccccc2-c2nn[nH]n2)cc1` [Los, Losartan], the “PAX2 expression / protein levels” value in the assay on PAX2 protein is “significant reduction of PAX2 expression; also recorded: suppress PAX2 protein levels”. The “decrease in proliferation rate” value in the assay with DU145 cells (DU145) turned out to be 50%. Moreover, the “effect on AngII-induced proliferation” value in the assay with DU145 cells (DU145, pre-treating for 30 min) is listed as “suppressed the effect of AngII on proliferation”. For the same compound, in the assay with PAX2 (DU145), the “effect on AngII effect on PAX2 expression” value was “blocks the effect of Angiotensin II (AngII) effect on PAX2 expression”. In addition, the “reduction of PAX2 expression” value stood at 37% in the assay on PAX2 (DU145, 48 hours) and 50% in the assay with PAX2 (DU145, 72 hours). The phospho-ERK result in the assay on phospho-ERK 1/2 is “reduced the amount of phospho-ERK; also recorded: suppresses phospho-ERK 1/2 and PAX2 protein levels”. For the same compound, the ERK protein levels entry with ERK was “no effect on ERK protein levels”. Further, the phospho-STAT3 protein levels result with phospho-STAT3 is given as “reduced phospho-STAT3 protein levels; also recorded: suppress phospho-STAT3 protein levels”. Further, the phospho-PAX2 protein levels result with phospho-PAX2 is “significant decrease or suppression of phospho-PAX2 protein levels; also recorded: suppress phospho-PAX2 protein expression levels”. Moreover, the phospho-JNK protein levels result in the assay on phospho-JNK is on record as “did not decrease phospho-JNK protein levels; also recorded: failed to decrease phospho-JNK protein levels”.

As to `COc1cccc(-c2cc(=O)c3ccccc3o2)c1N` [PD98059], the “PAX2 expression / protein levels” value with PAX2 protein is listed as “decreased PAX2; also recorded: suppress PAX2 protein levels”. Further, in the assay with phospho-STAT3, the phospho-STAT3 protein levels result is “reduced phospho-STAT3 protein levels; also recorded: suppress phospho-STAT3 protein levels”. In addition, the phospho-PAX2 protein levels result with phospho-PAX2 is listed as “significant decrease or suppression of phospho-PAX2 protein levels; also recorded: suppress phospho-PAX2 protein expression levels”.

Consider `Cc1cc(Cn2cnc3c2C[C@@H](C(=O)O)N(C(=O)C(c2ccccc2)c2ccccc2)C3)ccc1N(C)C` [PD123319], for which the “increase in PAX2 expression” value with PAX2 (DU145, 48 hours) came out at 7 fold; in the assay on PAX2 (DU145, 96 hours), 8 fold.

For the compound Angiotensin II (DRVYIHPF) [AngII], the “decrease in DEFB1 expression relative to untreated hPrEC cells” value turned out to be 35% in the assay on DEFB1 (72 hours) and 50% in the assay with DEFB1 (96 hours). In the assay on DEFB1 (96 hours), the “increase in DEFB1 relative to untreated hPrEC cells” value came to 79%. In addition, the proliferation rate entry in the assay on DU145 cells (DU145, AngII treatment) was “two- to three-fold increase; also recorded: increases DU145 cell proliferation”. For the same compound, the PAX2 expression entry in the assay on PAX2 (DU145, 30 min to 48 hour AngII treatment) was “progressively increased over time”. For the same compound, in the assay with PAX2 (hPrEC, 10 μM, 72 hours), the “increase in PAX2 expression relative to untreated hPrEC cells” value is recorded as 66%. Besides, the “PAX2 expression in hPrEC as % of PAX2 levels in PC3 cells” value in the assay on PAX2 (hPrEC, 72 hours) came to 77%. Also, in the assay with PAX2 (hPrEC, 96 hours), the “PAX2 expression in hPrEC as % of PAX2 expression in PC3 cells” value turned out to be 89%.
